Results on 13 molecules are retold here after patent publication US8680290B2, “Isoxazoline derivatives and their use as herbicides” (Syngenta Limited, priority 2004, dated 2014).

The subject of test [1] is Monocotyledonous and dicotyledonous test plants. As to the kind of experiment: Example B1 herbicidal action, application post-emergence (Table B1a). Type of test: in vivo. The following applies: 250 g/ha, evaluated after 3 weeks, scale 0-10. The procedure: Monocotyledonous and dicotyledonous test plants were sown in seed trays in standard soil. Immediately after sowing (pre-emergence) or after 8 to 9 days cultivation (post-emergence), the test compounds were applied by spraying in the form of an aqueous solution derived from the formulation of the technical active ingredient in 0.6 ml acetone and 45 ml formulation solution containing 10.6% Emulsogen EL (CAS RN 61791-12-6), 42.2% N-methylpyrrolidone, 42.2% dipropylene glycol monomethyl ether (CAS RN 34590-94-8) and 0.2% X-77 (CAS RN 11097-66-8). The test plants were then grown in a greenhouse under optimum conditions. After a test duration of 3 weeks (post-emergence) or 4 weeks (pre-emergence), the test was evaluated (10=total damage to plant, 0=no damage to plant).

The test system is the same in test [2]. As to the kind of experiment: Example B1 herbicidal action, application pre-emergence (Table B1b). The following applies: 250 g/ha, evaluated after 4 weeks. It is filed as in vivo. The method in brief:
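Compounds sprayed as aqueous solution from acetone/Emulsogen EL/NMP/dipropylene glycol monomethyl ether/X-77 formulation onto soil right after sowing (pre-emergence) or onto 8–9-day plants (post-emergence); greenhouse-grown. Damage scored 0 (none) to 10 (total) after 4 weeks pre- or 3 weeks post-emergence.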

As for `CC1(C)CC(S(=O)(=O)C(F)(Cl)c2ccccc2C(F)(F)F)=NO1` (racemic) [1.95], in test [1], the “herbicidal damage rating, Abutilon” value stood at 0; the “herbicidal damage rating, Amaranthus” value worked out at 0; the “herbicidal damage rating, Digitaria” value amounted to 8; the “herbicidal damage rating, Panicum” value was found to be 7. In test [1], the “herbicidal damage rating, Setaria” value is given as 3 and the “herbicidal damage rating, Sida” value was 2. For the same molecule, in test [2], the “herbicidal action (damage rating 0-10), Amaranthus” value (“herbicidal action … Amaranthus” below) was determined as 7; the “herbicidal action (damage rating 0-10), Digitaria” value (“herbicidal action … Digitaria” below) stood at 10; the “herbicidal action (damage rating 0-10), Panicum” value (shortened to “herbicidal action … Panicum”) was 10; the “herbicidal action (damage rating 0-10), Setaria” value (shortened to “herbicidal action … Setaria”) stood at 10. For the same molecule, the “herbicidal action (damage rating 0-10), Sida” value (shortened to “herbicidal action … Sida”) in test [2] was 7.

As for `COc1cc(OC)cc(C(F)(Cl)S(=O)(=O)C2=NOC(C)(C)C2)c1` (racemic) [1.96], in test [1], the “herbicidal damage rating, Abutilon” value worked out at 5; the “herbicidal damage rating, Amaranthus” value worked out at 0; the “herbicidal damage rating, Digitaria” value is listed as 8; the “herbicidal damage rating, Panicum” value was 5. In test [1], the “herbicidal damage rating, Setaria” value is on record as 3 and the “herbicidal damage rating, Sida” value came to 2. In test [2], the “herbicidal action … Amaranthus” value was found to be 9; the “herbicidal action … Digitaria” value is 10; the “herbicidal action … Panicum” value came to 10; the “herbicidal action … Setaria” value is listed as 10. Further, the “herbicidal action … Sida” value in test [2] is reported as 4.

With `CC1(C)CC(S(=O)(=O)C(F)(I)c2c(F)cccc2F)=NO1` (racemic) [Compound No. 1.61], in test [1], the “herbicidal damage rating, Abutilon” value turned out to be 3; the “herbicidal damage rating, Amaranthus” value was determined as 0; the “herbicidal damage rating, Digitaria” value turned out to be 7; the “herbicidal damage rating, Panicum” value stood at 4. Further, in test [1], the “herbicidal damage rating, Setaria” value was determined as 6 and the “herbicidal damage rating, Sida” value worked out at 3. Besides, in test [2], the “herbicidal action … Amaranthus” value was determined as 10; the “herbicidal action … Digitaria” value is 10; the “herbicidal action … Panicum” value was 10; the “herbicidal action … Setaria” value came to 10. Also, in test [2], the “herbicidal action … Sida” value was 7.

As for `C=C(OC(C)=O)C(F)(c1c(F)cccc1F)S(=O)(=O)C1=NOC(C)(C)C1` (racemic) [Compound No. 1.62], in test [1], the “herbicidal damage rating, Abutilon” value is listed as 4; the “herbicidal damage rating, Amaranthus” value is 2; the “herbicidal damage rating, Digitaria” value amounted to 7; the “herbicidal damage rating, Panicum” value was found to be 8. Further, in test [1], the “herbicidal damage rating, Setaria” value was determined as 6 and the “herbicidal damage rating, Sida” value was 5. In test [2], the “herbicidal action … Amaranthus” value worked out at 10; the “herbicidal action … Digitaria” value came to 9; the “herbicidal action … Panicum” value is given as 10; the “herbicidal action … Setaria” value worked out at 10. For the same molecule, the “herbicidal action … Sida” value in test [2] is reported as 8.

In the case of `CC1(C)CC(S(=O)(=O)C(C)(F)c2c(F)cccc2F)=NO1` (stereo not drawn) [1.55], in test [1], the “herbicidal damage rating, Abutilon” value was 5; the “herbicidal damage rating, Amaranthus” value is 3; the “herbicidal damage rating, Digitaria” value is reported as 6; the “herbicidal damage rating, Panicum” value is on record as 5. Moreover, in test [1], the “herbicidal damage rating, Setaria” value came out at 7 and the “herbicidal damage rating, Sida” value came to 3. Further, in test [2], the “herbicidal action … Amaranthus” value was found to be 9; the “herbicidal action … Digitaria” value came to 10; the “herbicidal action … Panicum” value is 10; the “herbicidal action … Setaria” value is 10. Also, the “herbicidal action … Sida” value in test [2] stood at 5.

For `CC1(C)CC(S(=O)(=O)C(F)(F)c2ccccc2C(F)(F)F)=NO1` [1.65], in test [1], the “herbicidal damage rating, Abutilon” value came out at 2; the “herbicidal damage rating, Amaranthus” value is 0; the “herbicidal damage rating, Digitaria” value was determined as 8; the “herbicidal damage rating, Panicum” value came to 7. For the same molecule, in test [1], the “herbicidal damage rating, Setaria” value stood at 5 and the “herbicidal damage rating, Sida” value is 2. In test [2], the “herbicidal action … Amaranthus” value was found to be 10; the “herbicidal action … Digitaria” value worked out at 10; the “herbicidal action … Panicum” value is reported as 10; the “herbicidal action … Setaria” value is 10. Moreover, the “herbicidal action … Sida” value in test [2] was 8.

In the case of `CC1(C)CC(S(=O)(=O)C(F)(F)c2ccccc2OC(F)F)=NO1` [1.66], in test [1], the “herbicidal damage rating, Abutilon” value was found to be 8; the “herbicidal damage rating, Amaranthus” value stood at 5; the “herbicidal damage rating, Digitaria” value turned out to be 8; the “herbicidal damage rating, Panicum” value was determined as 5. Also, in test [1], the “herbicidal damage rating, Setaria” value is reported as 7 and the “herbicidal damage rating, Sida” value is recorded as 5. Moreover, in test [2], the “herbicidal action … Amaranthus” value amounted to 10; the “herbicidal action … Digitaria” value is 10; the “herbicidal action … Panicum” value is given as 10; the “herbicidal action … Setaria” value was 10. Further, in test [2], the “herbicidal action … Sida” value is given as 9.

On to `CC1(C)CC(S(=O)(=O)C(F)(F)c2ccccc2OC(F)(F)F)=NO1` [1.67], for which, in test [1], the “herbicidal damage rating, Abutilon” value stood at 4; the “herbicidal damage rating, Amaranthus” value amounted to 3; the “herbicidal damage rating, Panicum” value turned out to be 3; the “herbicidal damage rating, Setaria” value came out at 5. The “herbicidal damage rating, Sida” value in test [1] amounted to 4. In addition, in test [2], the “herbicidal action … Amaranthus” value was determined as 10; the “herbicidal action … Digitaria” value is recorded as 10; the “herbicidal action … Panicum” value worked out at 10; the “herbicidal action … Setaria” value is recorded as 10. Also, the “herbicidal action … Sida” value in test [2] is 9.

Turning to `CC1(C)CC(S(=O)(=O)C(F)(F)c2ccccc2SC(F)(F)F)=NO1` [1.70], in test [1], the “herbicidal damage rating, Abutilon” value amounted to 5; the “herbicidal damage rating, Amaranthus” value was 2; the “herbicidal damage rating, Digitaria” value was 8; the “herbicidal damage rating, Panicum” value is on record as 5. For the same molecule, in test [1], the “herbicidal damage rating, Setaria” value is 7 and the “herbicidal damage rating, Sida” value was determined as 5. For the same molecule, in test [2], the “herbicidal action … Amaranthus” value is on record as 10; the “herbicidal action … Digitaria” value is 10; the “herbicidal action … Panicum” value is 10; the “herbicidal action … Setaria” value was determined as 10. In addition, the “herbicidal action … Sida” value in test [2] was 8.

Turning to `CC1(C)CC(S(=O)(=O)C(F)(F)c2ccccc2C#N)=NO1` [1.72], in test [1], the “herbicidal damage rating, Abutilon” value amounted to 3; the “herbicidal damage rating, Amaranthus” value is given as 8; the “herbicidal damage rating, Digitaria” value is given as 7; the “herbicidal damage rating, Panicum” value is listed as 7. Besides, in test [1], the “herbicidal damage rating, Setaria” value is 8 and the “herbicidal damage rating, Sida” value came to 0. In test [2], the “herbicidal action … Amaranthus” value turned out to be 10; the “herbicidal action … Digitaria” value is recorded as 10; the “herbicidal action … Panicum” value is listed as 10; the “herbicidal action … Setaria” value stood at 10. Moreover, the “herbicidal action … Sida” value in test [2] came to 6.

Regarding `COc1cc(OC)cc(C(F)(F)S(=O)(=O)C2=NOC(C)(C)C2)c1` [1.76], in test [1], the “herbicidal damage rating, Abutilon” value was 5; the “herbicidal damage rating, Amaranthus” value came out at 3; the “herbicidal damage rating, Panicum” value is 5; the “herbicidal damage rating, Setaria” value turned out to be 5. Further, the “herbicidal damage rating, Sida” value in test [1] is reported as 5. Further, in test [2], the “herbicidal action … Amaranthus” value amounted to 9; the “herbicidal action … Digitaria” value is reported as 9; the “herbicidal action … Panicum” value was 10; the “herbicidal action … Setaria” value is listed as 8. Further, the “herbicidal action … Sida” value in test [2] is 3.

Consider `CC1(C)CC(S(=O)(=O)C(F)(F)c2ccccc2)=NO1` [1.77], for which, in test [1], the “herbicidal damage rating, Abutilon” value worked out at 5; the “herbicidal damage rating, Amaranthus” value was determined as 0; the “herbicidal damage rating, Digitaria” value was 8; the “herbicidal damage rating, Panicum” value is recorded as 5. Also, in test [1], the “herbicidal damage rating, Setaria” value came to 6 and the “herbicidal damage rating, Sida” value worked out at 3. Besides, in test [2], the “herbicidal action … Amaranthus” value is 10; the “herbicidal action … Digitaria” value was 10; the “herbicidal action … Panicum” value is listed as 10; the “herbicidal action … Setaria” value came out at 10. Also, in test [2], the “herbicidal action … Sida” value turned out to be 7.

Consider `Cc1ccccc1C(F)(F)S(=O)(=O)C1=NOC(C)(C)C1` [1.92], for which, in test [1], the “herbicidal damage rating, Abutilon” value stood at 5; the “herbicidal damage rating, Amaranthus” value stood at 3; the “herbicidal damage rating, Digitaria” value was found to be 8; the “herbicidal damage rating, Panicum” value is given as 5. For the same molecule, in test [1], the “herbicidal damage rating, Setaria” value is given as 7 and the “herbicidal damage rating, Sida” value is given as 7. In test [2], the “herbicidal action … Amaranthus” value is reported as 10; the “herbicidal action … Digitaria” value is listed as 10; the “herbicidal action … Panicum” value was found to be 10; the “herbicidal action … Setaria” value was found to be 10. In addition, the “herbicidal action … Sida” value in test [2] came to 8.
